Measured values as given in patent US20230142338A1, “THIOPHENYL DERIVATIVES USEFUL FOR MODULATING NUCLEIC ACID SPLICING” (REMIX THERAPEUTICS INC., priority 2020, published 2023).

Columns and labels:
Type in all cases: cell-based
SMN2 CJ mRNA = assay: Gene panel canonical junction qPCR assay: SMN2; details: Table 3, concentration having 50% response in CJ decrease, read-out: SMN2 IC50 (decrease in CJ mRNA levels)
Description: (§1) Compounds described herein were used to modulate RNA transcript abundance in cells. The expression of a target mRNA was measured by detecting the formation of an exon-exon junction in the canonical transcript (CJ). A compound mediated exon-inclusion event was detected by observing an increase in formation of a new junction with an alternative exon (AJ). Real-time qPCR assays were used to detect these splicing switches and interrogate the potency of various compounds towards different target genes. A high-throughput real time quantitative PCR (RT-qPCR) assay was developed to measure these two isoforms of the mRNA (CJ and AJ) for an exemplary gene, HTT, together with a control housekeeping gene, GAPDH or GUSB or PPIA, used for normalization. Briefly, the A673 or K562 cell line was treated with various compounds described herein (e.g., compounds of Formula (I)). After treatment, the levels of the HTT mRNA targets were determined from each sample of cell lysate by cDNA synthesis followed by qPCR.
(§2) The A673 cell line was cultured in DMEM with 10% FBS. Cells were diluted with full growth media and plated in a 96-well plate (15,000 cells in 100 ul media per well). The plate was incubated at 37° C. with 5% CO2 for 24 hours to allow cells to adhere. An 11-point 3-fold serial dilution of the compounds was made in DMSO then diluted in media in an intermediate plate. Compounds were transferred from the intermediate plate to the cell plate with the top dose at a final concentration of 10 uM in the well. Final DMSO concentration was kept at or below 0.25%. The cell plate was returned to the incubator at 37° C. with 5% CO2 for an additional 24 hours.
(§3) The K562 cell line was cultured in IMDM with 10% FBS. For K562, cells were diluted with full growth media and plated in either a 96-well plate (50,000 cells in 50 uL media per well) or a 384-well plate (8,000-40,000 cells in 45 uL media per well). An 11-point 3-fold serial dilution of the compounds were made in DMSO then diluted in media in an intermediate plate. Compound was transferred from the intermediate plate to the cell plate with the top dose at a final concentration of 10 uM in the well. Final DMSO concentration was kept at or below 0.25%. Final volume was 100 uL for 96-well plate and 50 uL for 384-well plate. The cell plate was then placed in an incubator at 37° C. with 5% CO2 for 24 hours.
(§4) The cells were then gently washed with 50 uL-100 uL cold PBS before proceeding to addition of lysis buffer. 30 uL-50 uL of room temperature lysis buffer with DNAse I (and optionally RNAsin) was added to each well. Cells were shaken/mixed thoroughly at room temperature for 5-10 minutes for lysis to take place and then 3 uL-5 uL of room temperature stop solution was added and wells were shaken/mixed again. After 2-5 minutes, the cell lysate plate was transferred to ice for RT-qPCR reaction setup. The lysates could also be frozen at −80° C. for later use.
(§5) In some cases, a direct lysis buffer was used. An appropriate volume of 3× lysis buffer (10 mM Tris, 150 mM NaCl, 1.5%-2.5% Igepal and 0.1-1 U/uL RNAsin, pH 7.4) was directly added to either K562 or A673 cells in media and mixed by pipetting 3 times. The plates were then incubated at room temperature with shaking/rocking for 20-50 minutes to allow for lysis to take place. After this time, the cell lysate plate was transferred to ice to set up for the RT-qPCR reactions. The lysates could also be frozen at −80° C. for later use.
(§6) To set up 10 uL RT-qPCR reactions, cell lysates were transferred to 384-well qPCR plates containing the master mix according to the table below. The plates were sealed, gently vortexed, and spun down before the run. The volumes were adjusted accordingly in some instances where the reaction was carried in 20 uL. The table below summarizes the components of the RT-qPCR reactions:
(§7) The RT-qPCR reaction was performed using a QuantStudio (ThermoFisher) under the following fast cycling conditions. […]

HTT AJ mRNA = assay: Splicing assay (RT-qPCR): increase in HTT alternative junction (AJ) mRNA; details: A673 or K562 cells, 24 hours treatment; concentration having 50% response in AJ mRNA increase
Description: as §1, §2, §3, §4, §5, §6, §7

HTT CJ mRNA [1] = assay: Gene panel canonical junction qPCR assay: HTT; details: Table 3, concentration having 50% response in CJ decrease, read-out: HTT IC50 (decrease in CJ mRNA levels)
Description: as §1, §2, §3, §4, §5, §6, §7

HTT CJ mRNA [2] = assay: Splicing assay (RT-qPCR): decrease in HTT canonical junction (CJ) mRNA; details: A673 or K562 cells, 24 hours treatment; concentration having 50% response in CJ mRNA decrease
Description: as §1, §2, §3, §4, §5, §6, §7

Target C CJ mRNA = assay: Gene panel canonical junction qPCR assay: Target C; details: Table 3, concentration having 50% response in CJ decrease, read-out: Target C IC50 (decrease in CJ mRNA levels)
Description: as §1, §2, §3, §4, §5, §6, §7

SMILES | IC50 (SMN2 CJ mRNA) [µM] | AC50 (HTT AJ mRNA) [µM] | IC50 (HTT CJ mRNA [1]) [µM] | AC50 (HTT CJ mRNA [2]) [µM] | IC50 (Target C CJ mRNA) [µM]
Cc1cn2cc(NC(=O)c3sc([C@H]4CCN[C@@H](C)C4)cc3F)cc(F)c2n1 [Compound 115, 3-fluoro-N-[8-fluoro-2-methylimidazo[1,2-a]pyridin-6-yl]-5-[(2S,4S)-2-methylpiperidin-4-yl]thiophene-2-carboxamide] | 0.1 to 1 | 0.1 to 1 | 0.1 to 1 | 0.1 to 1 | 
Cc1cn2cc(NC(=O)c3sc(C4CCNCC4)cc3F)nc2c(C)n1 [Compound 195, N-[6,8-dimethylimidazo[1,2-a]pyrazin-2-yl]-3-fluoro-5-(piperidin-4-yl)thiophene-2-carboxamide] | < 0.1 | 1 to 10 | 0.1 to 1 | 0.1 to 1 | > 0.01
Cn1cc2ccc(NC(=O)c3sc(C4CCNCC4)cc3F)cc2n1 [Compound 182, 3-fluoro-N-(2-methylindazol-6-yl)-5-(piperidin-4-yl)thiophene-2-carboxamide] | > 0.01 | > 10 | > 0.01 | > 10 | > 0.01
Cc1cn2nc(NC(=O)c3sc([C@@H]4CCN[C@@H](C)C4)cc3F)cc(C)c2n1 [Compound 104, N-[2,8-dimethylimidazo[1,2-b]pyridazin-6-yl]-3-fluoro-5-[(2S,4R)-2-methylpiperidin-4-yl]thiophene-2-carboxamide] | < 0.1 | 0.1 to 1 | < 0.1 | < 0.1 | 0.1 to 1
Cc1cn2cc(NC(=O)c3sc([C@@H]4CCN[C@H](C)C4)cc3F)cc(F)c2n1 [Compound 114, 3-fluoro-N-[8-fluoro-2-methylimidazo[1,2-a]pyridin-6-yl]-5-[(2R,4R)-2-methylpiperidin-4-yl]thiophene-2-carboxamide] | < 0.1 | 0.1 to 1 | 0.1 to 1 | 0.1 to 1 | 1 to 10
Cc1cn2cc(NC(=O)c3sc(N4CC(C)(C)NC(C)(C)C4)cc3F)cc(F)c2n1 [Compound 133, 3-fluoro-N-[8-fluoro-2-methylimidazo[1,2-a]pyridin-6-yl]-5-(3,3,5,5-tetramethylpiperazin-1-yl)thiophene-2-carboxamide] | 1 to 10 | > 10 | > 0.01 | > 10 | > 0.01
Cc1cn2cc(NC(=O)c3sc(C4CCNCC4)cc3F)cc(F)c2n1 [Compound 144, 3-fluoro-N-[8-fluoro-2-methylimidazo[1,2-a]pyridin-6-yl]-5-(piperidin-4-yl) thiophene-2-carboxamide] | < 0.1 | 0.1 to 1 | 0.1 to 1 | 0.1 to 1 | 
Cc1cn2cc(-c3cc(F)c(C(=O)N[C@H]4CCN[C@@H](C)C4)s3)nc2c(C)n1 [Compound 112] |  | > 10 |  | > 10 | 
Cc1cn2cc(NC(=O)c3sc(N4CCN5CCCC5C4)cc3F)cc(F)c2n1 (stereo not drawn) [Compound 139, 3-fluoro-N-[8-fluoro-2-methylimidazo[1,2-a]pyridin-6-yl]-5-[hexahydro-1H-pyrrolo[1,2-a]pyrazin-2-yl] thiophene-2-carboxamide] | 1 to 10 | > 10 | > 0.01 | > 10 | > 0.01
Cc1cn2cc(NC(=O)c3sc(N4CCNC(C)C4)cc3F)cc(C)c2n1 (stereo not drawn) [Compound 172, N-[2,8-dimethylimidazo[1,2-a]pyridin-6-yl]-3-fluoro-5-(3-methylpiperazin-1-yl)thiophene-2-carboxamide] | 1 to 10 | > 10 | > 0.01 | > 10 | > 0.01
Cc1cn2cc(-c3cc(F)c(C(=O)N[C@H]4CCN[C@H](C)C4)s3)nc2c(C)n1 [Compound 113] |  | > 10 |  | 0.1 to 1 | 
Cc1cn2cc(NC(=O)c3sc(N4CCNC(C)C4)c(Cl)c3Cl)cc(F)c2n1 (stereo not drawn) [Compound 186] | 1 to 10 | > 10 | > 0.01 | > 10 | 
Cc1cn2cc(NC(=O)c3sc(N4CC5(CN(C)C5)C4)cc3F)cc(F)c2n1 [Compound 135, 3-fluoro-N-[8-fluoro-2-methylimidazo[1,2-a]pyridin-6-yl]-5-[6-methyl-2,6-diazaspiro[3.3]heptan-2-yl]thiophene-2-carboxamide] |  | > 10 |  | 1 to 10 | 
Cc1cn2cc(-c3cc(F)c(C(=O)NC4CCN(C)CC4)s3)nc2c(C)n1 [Compound 109, 5-[6,8-dimethylimidazo[1,2-a]pyrazin-2-yl]-3-fluoro-N-(1-methylpiperidin-4-yl)thiophene-2-carboxamide] |  | > 10 |  | 1 to 10 | 
Cc1cn2cc(NC(=O)c3sc(N4CCNC(C)C4)cc3F)cc(F)c2n1 (stereo not drawn) [Compound 128, 3-fluoro-N-[8-fluoro-2-methylimidazo[1,2-a]pyridin-6-yl]-5-(3-methylpiperazin-1-yl)thiophene-2-carboxamide] | 0.1 to 1 | > 10 | 1 to 10 | 1 to 10 | 
CCC1CN(c2cc(F)c(C(=O)Nc3cc(F)c4nc(C)cn4c3)s2)CCN1 (stereo not drawn) [Compound 130, 5-(3-ethylpiperazin-1-yl)-3-fluoro-N-[8-fluoro-2-methylimidazo[1,2-a]pyridin-6-yl]thiophene-2-carboxamide] |  | > 10 |  | 1 to 10 | 
Cc1cn2cc(NC(=O)c3sc(N4CCNCC4)cc3F)cc(F)c2n1 [Compound 126, 3-fluoro-N-[8-fluoro-2-methylimidazo[1,2-a]pyridin-6-yl]-5-(piperazin-1-yl)thiophene-2-carboxamide] | 0.1 to 1 | 1 to 10 | 1 to 10 | 1 to 10 | 
Cc1cn2cc(NC(=O)c3ccc(N4CCNC(C)C4)s3)cc(F)c2n1 (stereo not drawn) [Compound 122, N-[8-fluoro-2-methylimidazo[1,2-a]-pyridin-6-yl]-5-(3-methylpip-erazin-1-yl)-thiophene-2-carboxamide] | 0.1 to 1 | > 10 | > 0.01 | > 10 | 
Cc1cn2cc(NC(=O)c3sc(N4CCNC(C)C4)cc3F)nc2c(C)n1 (stereo not drawn) [Compound 168, N-[6,8-dimethylimidazo[1,2-a]pyrazin-2-yl]-3-fluoro-5-(3-methylpiperazin-1-yl)thiophene-2-carboxamide] |  | > 10 |  | 1 to 10 | 
Cc1cn2cc(NC(=O)c3sc(N4CCC(N(C)C)CC4)cc3F)cc(F)c2n1 [Compound 140, 5-[4-(dimethylamino)piperidin-1-yl]-3-fluoro-N-[8-fluoro-2-methylimidazo[1,2-a]pyridin-6-yl]thiophene-2-carboxamide] |  | 0.1 to 1 |  | 1 to 10 | 
Cc1cn2cc(NC(=O)c3sc(C4CC(C)(C)NC(C)(C)C4)cc3F)cc(F)c2n1 [Compound 148, 3-fluoro-N-[8-fluoro-2-methylimidazo[1,2-a]pyridin-6-yl]-5-(2,2,6,6-tetramethylpiperidin-4-yl)thiophene-2-carboxamide] |  | 0.1 to 1 |  | 0.1 to 1 | 
